Results published in US12628820B2, “Systems and methods for preservation of cells” (UNIVERSITY OF LOUISVILLE RESEARCH FOUNDATION, Inc., priority 2017, dated 2026).

Columns and labels:
RBCs [1] = assay: Recovery of RBCs 24 hours after sonoporation (toxicity); format: cell-based, pig or human; conditions: 200 mM trehalose, microbubbles, 2.5-MHz ultrasound 70 seconds
Description: (§1) In vitro experiments have been performed to validate the methods and systems described herein. Briefly, a 0.5 mL solution containing pig or human RBCs, 200 mM trehalose, and microbubbles was placed in a conical tube and sonicated with a 2.5-MHz clinical ultrasound probe for 70 seconds (Philips 4-1 on a Verasonics Vantage 64LE ultrasound imaging system). […] Following sonication, samples were dried (FIG. 5A-B), frozen at −80° C., or freeze-dried for 1 week. Upon thawing or rehydration, the percentage of structurally intact RBCs was counted (FIG. 6A-B). Cell recovery rates of up to 85% were achieved after freezing/thawing, compared to less than 40% without sonoporation. Cell recovery rates of up to 12% were achieved after freeze-drying/rehydration, compared to 0% without sonoporation. Although the recovery is still low, this was believed to be a significant result given that not a single RBC was recovered from freeze-dried samples that had not been treated with sonoporation. […] The microfluidic sonoporation device can further improve the recovery rates by enabling consistent and precise trehalose delivery to each cell. This device is also effective in processing RBCs for long-term preservation in a frozen or freeze-dried state.

RBCs [2] = assay: Recovery of RBCs following freezing/thawing; format: cell-based, pig or human; conditions: for cell recovery rate (structurally intact RBCs) after freezing/thawing: frozen at -80° C.
Description: as §1

RBCs [3] = assay: Recovery of RBCs following freeze-drying/rehydration; format: cell-based, pig or human
Description: as §1

red blood cells = assay: Microscopy of dried red blood cells after rehydration; format: cell-based; conditions: after loading with trehalose; confocal image
Description: FIG. 5A-B includes microscopic images of dried red blood cells without trehalose (A) and after loading with trehalose (B).
as §1

OC[C@H]1O[C@H](O[C@H]2O[C@H](CO)[C@@H](O)[C@H](O)[C@H]2O)[C@H](O)[C@@H](O)[C@@H]1O [trehalose]
cell recovery 24 hours after sonication (RBCs [1]): > 95% | cell recovery rate (structurally intact RBCs) after freezing/thawing (RBCs [2]; 200 mM trehalose with sonoporation): up to 85% | recovery rate for frozen cells (RBCs [2]; after small changes to the cell media composition, frozen cells): above 85% | cell recovery rate (structurally intact RBCs) after freezing/thawing (RBCs [2]; without sonoporation): less than 40% | cell recovery rate (structurally intact RBCs) after freeze-drying/rehydration (RBCs [3]; 200 mM trehalose with sonoporation, freeze-dried for 1 week): up to 12% | recovery rate after freeze-drying, improved technique (RBCs [3]; after small changes to the cell media composition and freeze-drying parameters): above 12% | recovery after freeze-drying, initial experiments (RBCs [3]; initial experiments (data not shown)): less than 8% | cell recovery rate (structurally intact RBCs) after freeze-drying/rehydration (RBCs [3]; without sonoporation, freeze-dried): 0% | shape of dried blood cells after rehydration (red blood cells): maintain shape after rehydration
